Test results reported in a melting point compilation (Tetko et al.; mined from patent text by program, amines drawn as free bases though some values may be those of a salt).

SMILES | melting point [°C]
COc1ccc(SSc2ccc(OC)cc2C(=O)NC(CC(C)C)C(=O)O)c(C(=O)NC(CC(C)C)C(=O)O)c1 (stereo not given) | 168 to 169
CCOc1cc(N)c(Cl)cc1C(=O)NCC1CN(CC2CCN(C#N)CC2)CCO1 (stereo not given) | 197
Cn1c(COc2ccc(CC3SC(=O)NC3=O)cc2)nc2ccc(Oc3ccc4cccc(NC(=O)Nc5ccc(F)cc5F)c4c3)cc21 (stereo not given) | 222 to 224
CCc1c(C(N)=O)sc(SC)c1-c1oncc1C | 93.5 to 94.5
O=C(NCCc1ccc([N+](=O)[O-])cc1)Nc1ccc(Nc2ccccc2)cc1 | 204 to 205
O=c1c(C2CCCC2)coc2cc(O)cc(Cl)c12 | 282 to 284
CC(=O)COc1ccc(O)cc1 | 110 to 112
CC(C)C1C(=O)C(C)(C)C(=O)N1c1ccc(C#N)c(Cl)c1 (stereo not given) | 116 to 117
O=C(Oc1ccc(Cl)cc1Cn1nc(-c2ccc(C(F)(F)F)cc2)oc1=O)c1ccc(CCl)cc1 | 142 to 144
CN(C)c1cccc2c1c(=O)n(C)c1c(-c3nc(C4CC4)no3)ncn21 | 214
COC(=O)c1cc(-c2c(-c3ccccc3)nn3ccccc23)cn(C)c1=O | 268 to 270
Cc1ccc2cc(C=O)ccc2c1 | 110 to 111
CC(C)(C)c1cc(C(N)=NO)cc2c1OCC2(C)C | 109 to 110
CCc1cccc(CC)c1NC(=O)c1c(C)oc(C)cc1=O | 83.5 to 84.5
Oc1ccc(O)c(O)c1O | 162 to 164
CCC1(CC)C(=O)c2cc(O)c(C)c(C)c2C1=O | 141 to 142
CN1CCC2(CC1)OCc1ccccc12 | 76 to 77
O=C(NCCCn1cncn1)c1ccc(Cl)c(Cl)c1 | 128 to 130
O=C(Cl)c1ccc2cc(C(=O)Cl)ccc2c1 | 186
Cc1ccccc1NC(=O)C1(C)CCCCC1 | 138
CCOC(=O)C(=O)CC(=O)c1cn(Cc2c(F)cccc2F)c2ccccc2c1=O | 172 to 173
NC(=S)c1ncn2c1[C@@H]1CCN1C(=O)c1c(Cl)cccc1-2 | 250 to 253
O=C(CC1CCN(Cc2ccccc2)CC1)c1ccc(N2CCCC2)cc1 | 110 to 112
CCOC(=O)c1cc(-c2csc(-c3ccnc(N)c3)n2)c(=O)[nH]c1C | > 260
Nc1ccc2ccc(Nc3ccccc3)nc2n1 | 250
NC(=S)Cn1c(=O)sc2ccccc21 | 205 to 207
CC(=O)Nc1ncnc2[nH]nc(C#N)c12 | > 360

SMILES | melting point [°C]
COC(=O)Cc1cc2c(cc1CC(=O)NCCc1cccc(OC)c1)OCO2 | 81 to 83
CCOC(=O)CNC(=O)Nc1ccc(C#N)cc1 | 140 to 144
CCc1oc2ccccc2c1C(=O)c1ccc(Br)c(S(N)(=O)=O)c1 | 202 to 206
CS(=O)(=O)c1ccc(-c2cnn(-c3cccc(Cl)c3)c(=O)c2C2CCCC2)cc1 | 155 to 157
FC(F)(F)c1ccc(Oc2ccc3nnsc3c2)c(Cl)c1 | 72 to 73
Oc1ccc2c(c1)COc1c-2cc2ccc(O)cc2c1-c1ccco1 | 158 to 163
CCCNC(=O)c1cnc2cccc(C)n2c1=O | 158 to 160
CN1Cc2c(-c3noc(CCl)n3)ncn2-c2cccc(F)c2C1=O | 206
CCCc1c(OCCCOc2cccc3ccccc23)ccc2c1OC(CCC(=O)O)(CCC(=O)O)CC2=O | 164 to 167
CCOC(=O)C1=C(C)N(C2CC2)C(C)=C(C(=O)OC)C1c1ccc(C(F)(F)F)cc1 (stereo not given) | 110
Cc1oc(-c2ccccc2)nc1COc1ccccc1COc1ccc(CC(=O)O)cc1 | 173 to 174
CCCCn1nc2c(N)nc3ccccc3c2c1CCS(=O)(=O)CCC | 169 to 171
CC1(C)N=C(c2ccccc2Cl)c2cc([N+](=O)[O-])cc(Cl)c2NC1=O | 121
Cc1ccc(CC(CNC(=O)C(C)c2ccc(NS(C)(=O)=O)cc2)COC(=O)C(C)(C)C)cc1C (stereo not given) | 112 to 115
CN(C)c1ccc(C(=O)C#Cc2ccncc2)cc1 | 143 to 145
CCOC(=O)c1cccc(OP(=O)(CCN2CCCNc3c2c(=O)c3=O)Oc2cccc(C(=O)OCC)c2)c1 | 116 to 117
O=C(CC1CCC1)N[C@H]1CC[C@H](CCN2CCN(c3nccc4c3CCO4)CC2)CC1 | 193
CNC(=O)C(C)(C)OCc1cc(-c2ccc(Cl)cc2)no1 | 93 to 94
CC(=O)NC1CCc2c([nH]c3ccc(Br)cc23)C1 (stereo not given) | 210 to 211
CCOC(=O)C=CC=Cc1cccc([N+](=O)[O-])c1 | 100 to 101
O=C(CCCN1CCOCC1)c1ccc2c(c1)Cc1cc(C(=O)CCCN3CCOCC3)ccc1-2 | 166 to 168
O=C(O)c1ccc(NCCOc2ccccc2)cc1 | 172 to 175
C=C(CC)C(=O)c1ccc(OCCCC(=O)O)c(Cl)c1Cl | 87 to 89
O=[N+]([O-])c1ccccc1Oc1ccc(Cl)cc1Cl | 54 to 55
Cc1cc2c(cc1-c1ccncc1)C(=O)C(=O)N2 | 292 to 294
COC(=O)c1ccc(N2CCCC2=O)c(N)c1 | 136 to 138

Next, values leading:

melting point [°C] | SMILES
209 to 210 | Cn1cc(-c2cc3cccnc3[nH]2)c2cc(OCCO)ccc21
141 | O=c1ssc(N2CCc3ccccc3CC2)c1Cl
83 to 86 | CCOc1ccccc1O[C@@H](c1ccccc1)[C@@H](CO)OS(C)(=O)=O (racemic)
93 to 95 | COC(=O)N1CCCSC1=C[N+](=O)[O-]
205 to 206 | NC(=O)c1c(Cl)c(-c2cccnc2)n2c1CN(S(=O)(=O)c1ccc(C(F)(F)F)cc1)CC2
56 to 58 | CC(C(=O)O)c1ccc(C(F)(F)F)cc1 (stereo not given)
53 to 54 | COc1ccc(CCCl)cc1O
191 | O=c1c2ccccc2nc(-c2ccccc2)n1CCN1CCC(c2c[nH]c3ccccc23)CC1
147 to 149 | COC(=O)c1nc(Nc2cccc(C(F)(F)F)c2)sc1-c1ccccc1
175 to 177 | COCON1C(=O)C(=C/c2ccccc2)/C(=C\c2cc(OC)c(OC)c(OC)c2)C1=O
160 to 167 | COCc1c(C(=O)OC(C)(C)C)ncc2[nH]c3ccc(OCc4ccccc4)cc3c12
128 to 130 | CN=C(NS(=O)(=O)c1ccc(Cl)cc1)C1=NN(c2ccc(Cl)cc2Cl)C(c2ccccc2)C1 (stereo not given)
173 to 175 | Cc1cc2c(c3ccc(=O)[nH]c13)OC(C(O)CN=[N+]=[N-])C2 (stereo not given)
165 to 168 | CN(C)Nc1c(-c2c(F)cc(F)cc2F)c(Cl)nc2ncnn12
118 to 120 | c1ccc(COc2ccc(-c3nc(COc4ccc(CCCCn5ccnc5)cc4)co3)cc2)cc1
157 to 158 | Cc1ccc(C(=O)Nc2cccc(C(F)(F)F)c2)cc1Br
92 to 94 | COC(=O)c1ccc([N+](=O)[O-])cc1S(=O)(=O)O
78 to 80 | CCOC(=O)CCCN1C(=O)c2ccc(N/C(=C3\C(=O)Nc4ccccc43)c3ccccc3)cc2C1=O
226 | NNC(=O)C(=O)N(N)C(=O)c1ccccc1
153 to 156 | O=c1n(CCCC2CCCCC2)ccn1-c1ccc([N+](=O)[O-])cc1
154 | CC1CCCCc2ncc(C#N)c(=O)n21 (stereo not given)
192 to 193 | COC(=O)c1c(Cc2ccc(S(=O)(=O)NCCO)cc2)c(=O)c2ccc(Cl)cc2n1-c1ccccc1
42 to 44 | CCc1cc(Cl)c(C)c(Oc2c(C)cc(C)cc2C)n1
186 to 188 | C#Cc1cc(C)c(Oc2ccc([N+](=O)[O-])c(Nc3ccc(C#N)cc3)n2)c(C)c1

melting point [°C] | SMILES
82 to 83 | COc1ccc(C(=O)C#CCO)c(OC)c1OC
88 to 89 | CC1(C)Cc2ccc(Cl)cc2C=[N+]1[O-]
195 to 197 | COc1ccc(/C=C/C(=O)/C=C/c2ccc(OC)c(O)c2)cc1O
208 to 209 | Cc1cc(C)cc(S(=O)(=O)c2cccc(N)c2C#N)c1
222 to 224 | O=C(O)c1n[nH]c(=O)c2cc(F)ccc12
133 to 135 | O=C(Nc1cccc(OC2OC(CO)C(O)C2O)c1)C(F)(F)F (stereo not given)
130 to 132 | COC(=O)C(C)(C)OCc1cc2cc(C(F)(F)F)ccc2n1S(=O)(=O)c1cc(OC)ccc1OC
250 to 251 | Cc1nnc(-c2ccc3occ(-c4ccc(CS(C)(=O)=O)cc4)c3c2)o1
208 to 211 | CCCCc1oc2ccccc2c1C(=O)NCc1ccc2c(-c3ccc(Cl)cc3)c(OCc3nnn[nH]3)ccc2c1
102 to 104 | COCCCn1nnnc1-c1cc(-c2cc(C(C)C)ccc2OC)c(OCc2ccccc2)cc1OCc1ccccc1
46 to 48 | C=C(Cl)CNC(=S)SCc1ccccc1
138 | Cn1c([N+](=O)[O-])cnc1COc1ccc([N+](=O)[O-])cc1Cl
103 to 104 | CSc1noc(C2CC2)c1C(=O)c1ccc(C(F)(F)F)nc1C
113 to 114 | CC(C)(C)OC(=O)NCCON=C(C(=O)O)c1cccs1
166 to 168 | CN(C)C(=O)COC[C@@H]1CC(c2ccc(-c3ccc(N4C[C@H](Cn5ccnn5)OC4=O)cc3F)cn2)=NO1
115 to 118 | CCn1c(C)c(C2(c3c(-c4ccc(OC)cc4)nc4sccn34)OC(=O)c3cccnc32)c2ccccc21 (stereo not given)
138 to 143 | CCOC(C)OC1CCC2(C)C3=C(CCC2C1(C)C)C1=CCC(C(C)OCc2ccccc2)C1(C)CC3 (stereo not given)
230 | CC1CN(c2ccc(-c3[nH]nc4c3C(=O)c3c(NC(=O)NN5CCOCC5)cccc3-4)cc2)CCN1 (stereo not given)
173 to 175 | CC1(C)OC(=O)C(=Cc2ccc(Br)s2)C1=O
262 to 266 | COc1cc2c(c3c1OC(C)(C)C3)C(c1ccc(=O)n(Cc3ccc(C(N)=O)cc3)c1)=NC(C)(C)C2
145 to 147 | COc1ccc(C2=NN(C3CCN(C(=O)NC(C)(C)C)CC3)C(=O)[C@H]3CC=CC[C@@H]23)c2c1OC(C)(C)C2 (relative stereo)
185 to 187 | CCOC(=O)Nc1nc2ccccc2c2c1nc(CC)n2CCCCNS(C)(=O)=O
159 to 160 | O=C(Cc1ccsc1)Nc1ncc(Cl)cc1Cl
